These are literature values, as cited in patent publication US20260272857A1, “AN ORALLY RAPIDLY DISINTEGRATING TABLET OF PROPRANOLOL AND ITS PROCESS OF PREPARATION” (NOVUMGEN LIMITED, priority 2023, published 2026).

For series [1] the following is noted: high permeability and high solubility drug.
The conditions of series [2]: in vivo.

Counter-ions that a name gives are not always drawn.

Take `CC(C)NCC(O)COc1cccc2ccccc12` (stereo not drawn) [Propranolol hydrochloride]: in series [1], the “BCS class in the Biopharmaceutical classification system” value is “BCS class I”.

On to `CC(C)NCC(O)COc1cccc2ccccc12` (stereo not drawn) [propranolol, 1-naphthalen-1-yloxy-3-(propan-2-ylamino) propan-2-ol], for which, in series [2], the Elimination half-life is 8 h and the Plasma half-life is 3 to 6 h.
